Key:
Assay type in all cases: physicochemical
[1] = Excipient compatibility stress test (HPLC degradation products, color); parameters: key to CL color: A: No change; B: Slight discoloration; C: Medium discoloration; D: Strong discoloration; settings: Compound A forms
[2] = Hygroscopicity (loss on drying by TGA and XRPD, as is and after storage at 92% / 80% RH); settings: Compound A forms; for Loss on drying by TGA [%]: TGA temperature per cell: Modification A 110° C., amorphous 119° C., 4-hydroxybenzoate 200° C.
[3] = Xenon light stress test of bulk (HPLC degradation products, color, XRPD); parameters: key to CL color: A: No change; B: Slight discoloration; C: Medium discoloration; D: Strong discoloration; settings: Compound A forms, Xenon light (1200 kLuxh, 25° C.)
[4] = Solid state bulk stability stress test (HPLC degradation products, color, XRPD); parameters: key to CL color: A: No change; B: Slight discoloration; C: Medium discoloration; D: Strong discoloration; settings: Compound A forms
[5] = Solubility after equilibration at 25° C. for 24 h, with final pH and XRPD of solid residues; settings: Compound A forms
[6] = 2 weeks 50° C./75% RH, 1% in mixture 1
[7] = 2 weeks 50° C./75% RH, 1% in mixture 2
[8] = 2 weeks 50° C./75% RH, 1% in mixture 3
[9] = 2 weeks 50° C./75% RH, HGC capsule powder
[10] = 2 weeks 50° C./75% RH, HPMC capsule powder
[11] = 2 weeks 70° C./11% RH, 1% in mixture 1
[12] = 2 weeks 70° C./11% RH, 1% in mixture 2
[13] = 2 weeks 70° C./11% RH, 1% in mixture 3
[14] = 2 weeks 70° C./11% RH, HGC capsule powder
[15] = 2 weeks 70° C./11% RH, HPMC capsule powder
[16] = 2 weeks 70° C./75% RH, 1% in mixture 1
[17] = 2 weeks 70° C./75% RH, 1% in mixture 2
[18] = 2 weeks 70° C./75% RH, 1% in mixture 3
[19] = 2 weeks 70° C./75% RH, HPC capsule powder
[20] = 2 weeks 70° C./75% RH, HPMC capsule powder

Q: With `CNC(=O)c1cnc(OCCO)c(F)c1-c1c(Cl)c(F)cc2c1C[C@](c1ccccc1)([C@@H]1CCCN1)O2` [Compound A 4-hydroxybenzoate, 4-((2S,4S)-5-Chloro-6-fluoro-2-phenyl-2-((S)-pyrrolidin-2-yl)-2,3-dihydrobenzofuran-4-yl)-5-fluoro-6-(2-hydroxyethoxy)-N-methylnicotinamide] as the compound, how does the CL color [1, 6] read?
A: A

Q: And the “DP[%] degradation products” value [1, 6]?
A: 0.3%

Q: What about the CL color [1, 7] of the same compound?
A: A

Q: And the “DP[%] degradation products” value [1, 7]?
A: 0.2%

Q: And the CL color [1, 8]?
A: A

Q: And the “DP[%] degradation products” value [1, 8]?
A: 0.2%

Q: What about the CL color [1, 9] of the same compound?
A: A

Q: And the “DP[%] degradation products” value [1, 9]?
A: 0.3%

Q: What about the CL color [1, 10] of the same compound?
A: A

Q: What about the “DP[%] degradation products” value [1, 10] of the same compound?
A: 0.6%

Q: And the CL color [1, 11]?
A: A

Q: And the “DP[%] degradation products” value [1, 11]?
A: 0.4%

Q: What about the CL color [1, 12] of the same compound?
A: A

Q: And the “DP[%] degradation products” value [1, 12]?
A: 0.1%

Q: And the CL color [1, 13]?
A: A

Q: And the “DP[%] degradation products” value [1, 13]?
A: 0.2%

Q: And the CL color [1, 14]?
A: A

Q: What about the “DP[%] degradation products” value [1, 14] of the same compound?
A: 0.3%

Q: And the CL color [1, 15]?
A: A

Q: And the “DP[%] degradation products” value [1, 15]?
A: 0.6%

Q: And the CL color [1, 16]?
A: A

Q: And the “DP[%] degradation products” value [1, 16]?
A: 3.6%

Q: And the CL color [1, 17]?
A: A

Q: And the “DP[%] degradation products” value [1, 17]?
A: 2.3%

Q: What about the CL color [1, 18] of the same compound?
A: A

Q: And the “DP[%] degradation products” value [1, 18]?
A: 1.5%

Q: And the CL color [1, 19]?
A: A

Q: And the “DP[%] degradation products” value [1, 19]?
A: 1.3%

Q: And the CL color [1, 20]?
A: A

Q: And the “DP[%] degradation products” value [1, 20]?
A: 3.1%

Q: What about the XRPD ([2]; After 1 day at 80% RH) of the same compound?
A: No change

Q: And the “Loss on drying by TGA [%]” value ([2]; After 1 day at 80% RH)?
A: 0.6% (200° C.)

Q: And the XRPD ([2]; After 1 day at 92% RH)?
A: No change

Q: What about the “Loss on drying by TGA [%]” value ([2]; After 1 day at 92% RH) of the same compound?
A: 0.7% (200° C.)

Q: And the “Loss on drying by TGA [%]” value ([2]; Hygroscopicity, before RH storage)?
A: 0.5% (200° C.)

Q: What about the “Bulk amber vial (XRPD)” value ([3]; amber vial) of the same compound?
A: No change

Q: What about the CL color ([3]; amber vial) of the same compound?
A: A

Q: And the “DP[%] degradation products, Bulk amber vial (HPLC)” value ([3]; amber vial)?
A: 0.2%

Q: And the “Bulk clear vial (XPRD)” value ([3]; clear vial)?
A: No change

Q: What about the CL color ([3]; clear vial) of the same compound?
A: A

Q: What about the “DP[%] degradation products, Bulk clear vial (HPLC)” value ([3]; clear vial) of the same compound?
A: 0.2%

Q: And the “Bulk (XRPD)” value ([4]; 2 weeks 50° C./75% RH)?
A: No change

Q: What about the CL color ([4]; 2 weeks 50° C./75% RH) of the same compound?
A: A

Q: What about the “DP[%] degradation products, Bulk (HPLC)” value ([4]; 2 weeks 50° C./75% RH) of the same compound?
A: 0.2%

Q: What about the “Bulk (XRPD)” value ([4]; 2 weeks 80° C., 11% RH) of the same compound?
A: No change

Q: What about the CL color ([4]; 2 weeks 80° C., 11% RH) of the same compound?
A: A

Q: And the “DP[%] degradation products, Bulk (HPLC)” value ([4]; 2 weeks 80° C., 11% RH)?
A: 0.2%

Q: What about the “Bulk (XRPD)” value ([4]; 2 weeks 80° C./75% RH) of the same compound?
A: No change

Q: And the CL color ([4]; 2 weeks 80° C./75% RH)?
A: A

Q: What about the “DP[%] degradation products, Bulk (HPLC)” value ([4]; 2 weeks 80° C./75% RH) of the same compound?
A: 1.5%

Q: What about the “final pH” value ([5]; FaSSIF V2 pH 6.5) of the same compound?
A: (6.55)

Q: And the “Sol. (solubility)” value ([5]; FaSSIF V2 pH 6.5, target concentration 20 mg/10 mL)?
A: >2, mg/mL

Q: What about the “final pH” value ([5]; FeSSIF V2 pH 5.8) of the same compound?
A: (5.86)

Q: And the “Sol. (solubility)” value ([5]; FeSSIF V2 pH 5.8, target concentration 20 mg/10 mL)?
A: >2, mg/mL

Q: What about the “final pH” value ([5]; SGF pH 2.0) of the same compound?
A: (2.36)

Q: And the “Sol. (solubility)” value ([5]; SGF pH 2.0, target concentration 20 mg/10 mL)?
A: >2, mg/mL

Q: And the “final pH” value ([5]; Water)?
A: (7.66)

Q: And the “Sol. (solubility)” value ([5]; Water, target concentration 20 mg/10 mL)?
A: >2, mg/mL

Q: What about the “final pH” value ([5]; pH 1.2, 100 mM HCl) of the same compound?
A: (1.18)

Q: And the “Sol. (solubility)” value ([5]; pH 1.2, 100 mM HCl, target concentration 20 mg/10 mL)?
A: >2, mg/mL

Q: And the “final pH” value ([5]; pH 3.0, 50 mM citrate buffer)?
A: (3.12)

Q: And the “Sol. (solubility)” value ([5]; pH 3.0, 50 mM citrate buffer, target concentration 20 mg/10 mL)?
A: >2, mg/mL

Q: What about the “final pH” value ([5]; pH 4.7, 50 mM acetate buffer) of the same compound?
A: (4.78)

Q: What about the “Sol. (solubility)” value ([5]; pH 4.7, 50 mM acetate buffer, target concentration 20 mg/10 mL) of the same compound?
A: >2, mg/mL

Q: What about the “final pH” value ([5]; pH 6.8, 50 mM phosphate buffer) of the same compound?
A: (6.75)

Q: And the “final pH” value ([5]; pH 6.8, 50 mM phosphate buffer with 50 mM Na taurocholate)?
A: (6.72)

Q: What about the “Sol. (solubility)” value ([5]; pH 6.8, 50 mM phosphate buffer with 50 mM Na taurocholate, target concentration 20 mg/10 mL) of the same compound?
A: >2, mg/mL

Q: And the “Sol. (solubility)” value ([5]; pH 6.8, 50 mM phosphate buffer, target concentration 20 mg/10 mL)?
A: >2, mg/mL

Source: patent US20250011307A1, “CRYSTALLINE FORMS OF BIARYL YAP/TAZ-TEAD PROTEIN-PROTEIN INTERACTION INHIBITORS” (Novartis AG, priority 2021, published 2025)
